Results as given in patent US8252821B2, “Bioavailable capsule compositions of amorphous alpha-(N-sulfonamido)acetamide compound” (Bristol-Myers Squibb Company, priority 2009, dated 2012).

Assays:
Format in all cases: physicochemical
[1] = Solubility of solubilized capsule formulations in FaSSIF at 37° C.; settings: FaSSIF pH 6.5, 37° C.
[2] = Solubility of solubilized capsule formulations in FeSSIF at 37° C.; settings: FeSSIF pH 5.0, 37° C.
[3] = Aqueous solubility of the active compound; settings: water; at about room temperature
[4] = Solubility of solubilized capsule formulations in SGF at 37° C.

- ACTIVE COMPOUND Concentration ([1]; 5 Min.): 2.5 µg/mL
- ACTIVE COMPOUND Concentration ([1]; 15 Min.): 3.8 µg/mL
- ACTIVE COMPOUND Concentration ([1]; 24 Hr.): 7.7 µg/mL
- ACTIVE COMPOUND Concentration ([1]; 30 Min.): 4.6 µg/mL
- ACTIVE COMPOUND Concentration ([1]; 60 Min.): 6.0 µg/mL
- ACTIVE COMPOUND Concentration ([2]; 5 Min.): 9.7 µg/mL
- ACTIVE COMPOUND Concentration ([2]; 15 Min.): 11.5 µg/mL
- ACTIVE COMPOUND Concentration ([2]; 30 Min.): 13.3 µg/mL
- ACTIVE COMPOUND Concentration ([2]; 60 Min.): 15.3 µg/mL
- solubility [3]: < 1 µg/mL
- ACTIVE COMPOUND Concentration ([4]; 5 Min.): 0.0 µg/mL
- ACTIVE COMPOUND Concentration ([4]; 15 Min.): 4.6 µg/mL
- ACTIVE COMPOUND Concentration ([4]; 24 Hr.): 1.0 µg/mL
- ACTIVE COMPOUND Concentration ([4]; 30 Min.): 1.6 µg/mL
- ACTIVE COMPOUND Concentration ([4]; 60 Min.): 1.0 µg/mL
SMILES: NC(=O)[C@@H](CCC(F)(F)F)N(Cc1ccc(-c2ncon2)cc1F)S(=O)(=O)c1ccc(Cl)cc1 [Active Compound, (2R)-2-[[(4-chlorophenyl)sulfonyl][[2-fluoro-4-(1,2,4-oxadiazol-3-yl)phenyl]methyl]amino]-5,5,5-trifluoropentanamide]
